Measurements taken from patent US12589143B2, “Human anti-PD-L1 peptide vaccines and methods of their use” (priority 2019, dated 2026).
Where no end group is shown, it is not given here.

Tested on: D2F2 WT tumor cells
Test: D2F2 WT tumor challenge in Balb/c mice
Assay type: in vivo
Experimental: Balb/c mice 6-8 weeks old, were immunized with G1 and G2 mice were treated with anti-PD-1 mAb (29F.1A12) (G1) or anti-PD-L1 mAb (10F.9G2) (G2 or with MVF-PD-L1 vaccine constructs [PD-L1(92-110)(G3) PD-L1(130-147)(G4)] prior to tumor challenge. Similarly, G10, G11 and G12 are control groups and were not treated prior to tumor cell challenge. G13, G14 and G15 mice were immunized with 100 ug MVF-HER-2(266-296)+100 ug MVF-HER-2(597-626)+ISA720 per mouse for G13, 100 ug MVF-PD-1 (92-110)+100 ug MVF-HER-2(266-296)+100 ug MVF-HER-2(597-626)+ISA720 per mouse for G14 and 100 ug MVF-PD-L1 (130-147)+100 ug MVF-HER-2(266-296)+100 ug MVF-HER-2(597-626)+ISA720 per mouse for G15. The mice were immunized up to 4 times before tumor challenge. […] All the mice had been monitored at least twice per week, and the tumors were measured with calipers as data indicated.
The tumor volumes were measured by calipers and calculated by formula: (length×width2)/2. […] All the peptides immunized groups of mice are shown with less tumor burden than PBS group and mAbs treated groups as well.
G0, G1 and G2 are control groups, mice in these groups were not treated before tumor cells challenge. Following challenge with D2F2 WT tumor cells, G0 mice were treated with PBS (i.p.) twice per week start from day 2 post challenge served as negative control, G1 and G2 mice were treated with anti-PD-1 mAb (29F.1A12) or anti-PD-L1 mAb (10F.9G2), respectively. Treatment for G1 and G2 mouse groups was also started from day 2 post tumor challenge, with 100 ug administered/mouse twice a week. G1 and G2 served as positive control. […] All the mice had been monitored at least twice per week, and the tumors were measured with calipers as data indicated (FIG. 26).
Mice were immunized with designed peptides vaccines as descripted in FIG. 26, which indicated as 1Y, 2Y, 3Y and 4Y here and with 3 weeks apart. […] And the mice were monitor at least twice per week, and the tumors were measured as shown in the data figures.
The tumor volumes were measured by calipers and calculated by formula: (length×width2)/2. […]

Q: “KLLSLIKGVIVHRLEGVEGPSLVTSEHELTCQAEGYPKAE (KLLSLIKGVIVHRLEGVEGPSLVTSEHELTCQAEGYPKAE-NH2) [PD-L1(130)]” was tested. Which mice survival (after day 45 of tumor challenge) did it give?
A: The mice survival was “about 60%”.

Q: And the tumor volume (day 21 and day 28)?
A: The tumor volume was “smaller tumor volume than PBS negative control group and both of mAbs positive control groups”.
